Assay results reported in PMC7700651 (International Journal of Molecular Sciences, 2020).
Bridge positions count the residues as written; N and C are the ends. Peptide text beside a SMILES is read from it.

T1: BTLA/HVEM complex (Homo sapiens, UniProt Q92956)
T1 construct: His; purchased ACROBiosystems (HVEM-His); Novoprotein (BTLA-Fc) #HVM-H52E9; #CD06
T1 sequence (Q92956 39-202 limits assumed): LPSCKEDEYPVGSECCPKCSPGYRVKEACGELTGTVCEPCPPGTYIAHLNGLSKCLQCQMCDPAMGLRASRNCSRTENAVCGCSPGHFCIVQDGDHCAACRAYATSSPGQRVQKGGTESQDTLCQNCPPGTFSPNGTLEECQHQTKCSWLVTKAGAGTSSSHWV

T2: BTLA/HVEM complex (Homo sapiens, UniProt Q92956)
T2 construct: expressed in transfected cells; host or cells: Jurkat JE6.1 NFκB-eGFP reporter cells (HVEM); T cell stimulator cells from mouse thymoma BW5147 (BTLA)
T2 sequence (Q92956 39-283): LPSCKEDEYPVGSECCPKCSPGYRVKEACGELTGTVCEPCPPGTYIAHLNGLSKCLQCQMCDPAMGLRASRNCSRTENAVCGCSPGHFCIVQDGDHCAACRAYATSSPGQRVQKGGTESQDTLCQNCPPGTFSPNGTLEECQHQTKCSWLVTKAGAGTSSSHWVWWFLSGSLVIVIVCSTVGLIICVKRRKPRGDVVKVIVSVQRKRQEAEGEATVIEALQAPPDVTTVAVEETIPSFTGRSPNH

T3: recombinant human HVEM with His tag (human, UniProt Q92956 39-202)
T3 construct: also called HVEM-His; herpesvirus entry mediator; source: bought: ACROBiosystems (#HVM-H52E9)
T3 sequence (looked up): T1 sequence (Q92956 39-202 limits assumed)


How the values were obtained:
[1] = molecular target: T1, BTLA/HVEM complex; test: ELISA, inhibition of BTLA/HVEM complex formation; type: biochemical; details: peptides 1.5 to 0.375 mg/mL, 24 h, 37 °C; HVEM-His coated; BTLA-Fc 5 μg/mL
Protocol: ELISA tests were performed to check the inhibitory properties of the peptides. HVEM protein was first immobilized in microplates and then the peptides were added in three different concentrations and incubated with HVEM. Unbound peptides were then removed and BTLA-Fc protein was added. For the detection of BTLA-Fc protein, a goat anti-human IgG (H+L)-HRP conjugate and TMB (3,3’,5,5’-tetramethylbenzidine) were applied. As a positive control, anti-HVEM antibodies, which inhibit the BTLA/HVEM complex formation by about 50%, were used (Figure 3A and Figure S3). […] The inhibitory properties of the peptides were also studied for the complex HVEM/LIGHT, using the same procedure and conditions as described above, but with the application of LIGHT protein instead of BTLA protein. A significant increase in inhibitory properties was observed only for the anti-HVEM antibodies (positive control), which inhibited the HVEM/LIGHT binding by about 75% (Figure 3B and Figure S3). None of the tested peptides inhibited the formation of the LIGHT/HVEM complex (Figure 3B).
A 96-well Immunograde plate (Brand, Wertheim, Germany) was coated with 5 μg/mL of recombinant HVEM-His protein in PBS (100 μL/well) and incubated overnight at 4 °C. The plate was washed 5 times (200 μL/well) with PBS-T (5 mM Na2HPO4, 150 mM NaCl with the addition of 0.3 M NaCl and 0.05% Tween-20, pH 7.4) and blocked with 5% BSA in PBS-T for 2 h at 37 °C. The peptides were then titrated in triplicate from 1.5 to 0.375 mg/mL (100 µL/well) in PBS-T and incubated for 24 h at 37 °C. Maximum binding of HVEM to BTLA/LIGHT was determined by adding PBS-T to negative control wells, whereas maximum inhibition was measured by adding anti-HVEM (1 µg/well). The plate was then washed and incubated with recombinant BTLA-Fc/LIGHT-Fc protein at 5 μg/mL in PBS-T (100 μL/well) for 2 h at 37 °C. Goat anti-human IgG (H+L)-HRP conjugate (Bio-Rad, Hercules, CA, USA) antibody was then added (1:3000; 100 μL/well) and incubated for 1 h at 37 °C. Finally, BTLA-Fc/LIGHT-Fc was detected by the addition of 100 μL/well of TMB (Thermo Scientific, Waltham, MA, USA). Absorbance was measured using Infinite M200 Pro (Tecan Life Sciences, Männedorf, Switzerland) at 650 nm and 492 nm. […] ELISA tests were performed at least in triplicate. The data are presented as mean ± standard deviation (SD). The results were analyzed by one-way analysis of variance (ANOVA) followed by Dunnett’s post-hoc test using GraphPad Prism (San Diego, CA, USA).

[2] = molecular target: T2, BTLA/HVEM complex; test: Cell-based reporter assay (HVEM-expressing Jurkat NFκB-eGFP reporter cells stimulated with TCS-BTLA); details: 1.5 mg/mL; reporter cells pre-incubated 30 min with peptide, then TCS-BTLA 24 h; flow cytometry; three experiments in duplicate
Text: To assess the capacities of the gD peptides to interfere with the BTLA/HVEM complex in a functional in vitro setting, reporter cells (NFκB-eGFP), which are based on the human Jurkat T cell line JE6.1 were transduced to express HVEM [34]. These reporter cells can be stimulated by T cell stimulator cells (TCS) expressing a membrane-bound anti-CD3 antibody fragment, which is able to engage the TCR-CD3 complex and thereby activate the NFκB pathway. In addition, to control TCS, TCS expressing the corresponding co-stimulatory ligand BTLA were generated in order to trigger HVEM in trans on the reporter cells (Figure S4). To validate the HVEM reporter system, control, and HVEM - expressing reporter cells were stimulated with control TCS and TCS expressing BTLA (Figure S4). Engagement of BTLA with HVEM induced high expression of NFκB-eGFP. To determine the inhibitory properties of the gD peptides, HVEM reporter cells were pre-incubated with the indicated peptides at different concentrations, followed by stimulation with control TCS or TCS-BTLA (Figure 4).
Figure 4 The inhibitory function of the peptides in a reporter cell-based assay. HVEM reporter cells were stimulated with TCS expressing BTLA in the absence or presence of the indicated gD peptides at concentrations of 1.5 mg/mL, 750 μg/mL, and 375 μg/mL. Reporter gene expression (NFκB-eGFP), upon stimulation with TCS-BTLA, was normalized to reporter activation after stimulation with TCS control in the presence of the respective peptides. BTLA/HVEM stimulation in the absence of peptides was set to 100% activation. Results are shown for three experiments performed independently in duplicate. Data are depicted as mean with SEM. * indicates statistically significant differences compared to full activation (100%), two-way ANOVA followed by Bonferroni’s post hoc test; p < 0.0001.
For functional assays, HVEM-expressing reporter cells (5 × 10^4 cells/well) were pre-incubated with different concentrations of gD peptides for 30 min in a 96 flat bottom plate. Control TCS or TCS expressing BTLA (2 × 10^4 cells/well) were subsequently added for 24 h at 37 °C with 5% CO2. After 24 h, the cells were harvested and stained with an mCD45.2 antibody to exclude TCS from the reporter cells. Expression of the reporter gene (eGFP) was then measured via flow cytometry. The mean and standard deviation of the gMFI of the viable population of reporter cells (mCD45.2+ stimulator cells were excluded) were determined. Each experiment was performed in duplicate.

[3] = molecular target: T4, HVEM protein (Homo sapiens, UniProt Q92956); test: Affinity test: peptide on microcolumn with immobilized HVEM, fractions analysed by mass spectrometry; type: binding; details: for Interaction with HVEM protein in affinity test: microcolumn with immobilized HVEM, presence in elution fraction by mass spectrometry
T4 construct: His; purchased ACROBiosystems #HVM-H52E9
Protocol: Affinity tests were performed to confirm the interaction of the designed peptides with HVEM protein. The peptide was added to a microcolumn with immobilized HVEM protein, and binding was checked using mass spectrometry, according to a procedure described earlier.
The affinity tests were performed according to the procedure described in our previous paper. The MS spectrums were registered using a MALDI-TOF/TOF autoflex maX (Bruker, Billerica, MA, USA) mass spectrometer.

[4] = Stability of peptides in cell culture medium (RPMI1640 with 10% FCS), RP-HPLC; type: in vitro ADME; details: 37 °C, at least triplicate
Text: A low stability in solution, which could be connected with many different processes such as aggregation, conformation changes, and chemical degradation, including deamidation and isomerization, oxidation, hydrolysis, and racemization, is a major concern for the therapeutic application of peptides. For the presented study, the stability of the peptides in PBS buffer and medium (solutions used in tests described above) was studied and determined using RP-HPLC. The analysis was done by comparing the area under the peaks in a control sample (peptide dissolved in water, time = 0) and a sample after incubation in PBS or medium.
200 µL of medium (RPMI1640 with 10% FCS)/human plasma was added to 50 µL of each peptide (1 mg/mL). The samples were incubated for different times (0, 2, 3, 6, and 24 h) at 37 °C. They were then precipitated by the addition 1 mL of absolute ethanol, incubated on ice for 15 min and centrifuged at 18,000 rpm for 20 min at 4 °C. The supernatants were collected and dried under vacuum. The samples were then resuspended in 120 µL of 0.1% TFA and analyzed by RP-HPLC under the same conditions as described for the determination of the stability of the peptides in PBS. All stability tests were performed at least in triplicate. Blood was obtained from donor volunteers and centrifuged in lithium/heparin tubes. EDTA was used as an anticoagulant.

[5] = molecular target: T3, recombinant human HVEM with His tag; test: affinity purification with mass spectrometry; HVEM protein immobilised in a microcolumn; peptide added; supernatant, last wash and elution fractions analysed by MALDI-TOF/TOF MS; procedure of ref. 33; details: both partners purified

Row | Molecule | Inhibitory properties for BTLA/HVEM complex formation (ELISA), in words [1] | Capacity to interfere with BTLA/HVEM complex (reduction of NFκB-eGFP activation), in words [2] | Elution [M+H]+ (signal in elution fraction = binding to immobilized HVEM) ([3]; MALDI-TOF MS of elution fraction, binding confirmed if m/z signal present in elution and none in last wash, '-' = no signal) | Interaction with HVEM protein in affinity test [3] | metabolised at 24 h, 0.2 mg/mL ([4]; cell culture medium (RPMI1640 with 10% FCS), 200 µL + 50 µL peptide 1 mg/mL, 24 h, ethanol precipitation, read-out: Degradation in medium after 24 h) | Stability in medium (and PBS), in words ([4]; up to 24 h) | binding result [5]
1 | CSCC[C@@H]1NC(=O)[C@H](CC(=O)O)NC(=O)[C@H](CC(C)C)NC(=O)[C@H](CC(C)C)NC(=O)[C@H](CC(=O)O)NC(=O)[C@H](C(C)C)NC(=O)[C@H](C)NC(=O)[C@H](C(C)C)NC(=O)CNC(=O)[C@H](CC(=O)O)NC(=O)[C@@H](NC(=O)CNC(=O)[C@H](CCCCN)NC(=O)[C@H](CO)NC(=O)[C@H](C)NC(=O)[C@H](CCCNC(=N)N)NC(=O)[C@H](CC(C)C)NC(=O)[C@@H]2CCCN2C(=O)[C@H](CCCNC(=N)N)NC(=O)[C@H](CC(=O)O)NC(C)=O)CSSC[C@@H](C(=O)N[C@@H](CC(C)C)C(=O)N[C@H](C(=O)N[C@@H](CC(C)C)C(=O)N[C@@H](CC(=O)O)C(=O)N[C@@H](Cc2ccccc2)C(=O)N[C@@H](C)C(=O)N[C@@H](CCCNC(=N)N)C(N)=O)C(C)C)NC(=O)[C@@H]2CCCN2C(=O)[C@H](CC(N)=O)NC(=O)[C@H](CCCCN)NC(=O)[C@H](CCC(N)=O)NC(=O)[C@H](CCCNC(=N)N)NC(=O)[C@@H]2CCCN2C(=O)[C@H](Cc2ccc(O)cc2)NC(=O)[C@@H]2CCCN2C1=O [gD(1-36)(K10C-T29C)^SCR, reference compound] (Ac-DRPLRASKGCDGVAVDLLDMPYPRQKNPCLVLDFAR-NH2; disulfide 10-29) | no effect | weak blocking effect | – | – | – | – | –
2 | CSCC[C@H](NC(=O)[C@H](CCCCN)NC(=O)[C@H](CC(C)C)NC(=O)[C@H](CO)NC(=O)[C@H](C)NC(=O)[C@H](CC(=O)O)NC(=O)[C@@H](NC(=O)[C@H](CC(C)C)NC(=O)[C@H](C)NC(=O)[C@H](Cc1ccc(O)cc1)NC(=O)[C@H](CCCCN)NC(C)=O)C(C)C)C(=O)N[C@@H](C)C(=O)N[C@@H](CC(=O)O)C(=O)N1CCC[C@H]1C(=O)N[C@@H](CC(N)=O)C(=O)N[C@@H](CCCNC(=N)N)C(=O)N[C@@H](Cc1ccccc1)C(=O)N[C@@H](CCCNC(=N)N)C(=O)NCC(=O)N[C@@H](CCCCN)C(=O)N[C@@H](CC(=O)O)C(=O)N[C@@H](CC(C)C)C(=O)N1CCC[C@H]1C(=O)N[C@H](C(=O)N[C@@H](CC(C)C)C(=O)N[C@@H](CC(=O)O)C(=O)N[C@@H](CCC(N)=O)C(=O)N[C@@H](CC(C)C)C(=O)N[C@H](C(=O)N[C@@H](CC(=O)O)C(=O)N1CCC[C@H]1C(=O)N1CCC[C@H]1C(=O)NCC(=O)N[C@H](C(=O)N[C@@H](CCCNC(=N)N)C(=O)N[C@@H](CCCNC(=N)N)C(N)=O)C(C)C)[C@@H](C)O)C(C)C [gD(1-36)] | did not prevent protein interaction | weak blocking effect | 4094.88 | binds to HVEM | ~50% | – | –
3 | Ac-ASLKMADPN-NH2 [gD(7-15)] | do not inhibit BTLA/HVEM complex formation | no effect | – | do not interact with HVEM protein | – | almost completely degraded | –
4 | Ac-DQLTDPP-NH2 [gD(26-32)] | do not inhibit BTLA/HVEM complex formation | weak blocking effect | – | do not interact with HVEM protein | – | – | –
5 | Ac-KYALVDASLKMADPNRFRGKDLPVLDQLTDPPGVRR-NH2 (source: synthetic peptide) [gD(1-36)] | – | – | – | – | – | – | binds
